Reference: patent US12472193B2, “Methods and compositions for treating and preventing respiratory related diseases and conditions with xylitol-headgroup lipid analogs” (National Jewish Health, priority 2017, dated 2025)
Entries after “also recorded” stand apart in the source; their conditions may differ.

Biological target: T1, TLR 3 (Homo sapiens, UniProt O15455)
T1 construct: endogenous in cells; host or cells: BEAS2B (ATCC)
T1 sequence (O15455 24-904): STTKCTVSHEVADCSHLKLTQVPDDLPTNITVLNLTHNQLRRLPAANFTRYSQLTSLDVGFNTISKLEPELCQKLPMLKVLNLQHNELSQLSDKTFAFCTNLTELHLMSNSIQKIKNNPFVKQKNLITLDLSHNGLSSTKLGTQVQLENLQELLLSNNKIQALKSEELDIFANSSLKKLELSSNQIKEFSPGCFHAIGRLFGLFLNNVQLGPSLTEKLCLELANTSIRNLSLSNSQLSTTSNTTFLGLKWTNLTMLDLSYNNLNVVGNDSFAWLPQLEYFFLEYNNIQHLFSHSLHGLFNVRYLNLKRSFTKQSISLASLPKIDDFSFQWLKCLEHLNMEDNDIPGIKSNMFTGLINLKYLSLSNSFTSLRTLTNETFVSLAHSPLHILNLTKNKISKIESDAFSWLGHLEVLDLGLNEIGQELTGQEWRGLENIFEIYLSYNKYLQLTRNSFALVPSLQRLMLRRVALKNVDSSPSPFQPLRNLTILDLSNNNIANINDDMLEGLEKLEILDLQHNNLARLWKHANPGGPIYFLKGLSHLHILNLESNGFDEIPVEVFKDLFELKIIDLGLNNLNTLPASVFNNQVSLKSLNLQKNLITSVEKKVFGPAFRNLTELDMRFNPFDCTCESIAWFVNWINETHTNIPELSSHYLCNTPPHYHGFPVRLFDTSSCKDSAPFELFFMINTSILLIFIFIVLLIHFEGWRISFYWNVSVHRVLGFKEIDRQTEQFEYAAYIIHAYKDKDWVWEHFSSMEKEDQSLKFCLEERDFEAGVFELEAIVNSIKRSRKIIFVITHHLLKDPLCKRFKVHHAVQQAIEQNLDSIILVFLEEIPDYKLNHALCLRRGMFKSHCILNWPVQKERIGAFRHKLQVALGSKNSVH
Assay: poly I:C-induced IL-8 release by BEAS2B cells (TLR 3 antagonism)
Format: cell-based
Details: for antagonism of TLR 3 activation (IL-8 release): poly I:C, 200 μg/ml lipid, 48 hours; for TLR3 antagonist activity: reduction in cytokine secretion vs activating TLR ligand alone; for IL-8 release from BEAS2B cells in the absence of poly I:C: lipid alone
Experimental: Human bronchial epithelial cells, BEAS2B, were obtained from ATCC and maintained in bronchial epithelial cell growth medium (BEGM), supplemented with the BulleKit from Lonza in accordance with protocol (M. H. Hudy, S. et al., “Cigarette smoke modulates rhinovirus-induced airway epithelial cell chemokine production.,” Eur. Respir. J., vol. 35, no. 6, pp. 1256-63, June 2010). Cells were cultured at 37 C with 5% carbon dioxide:95% air atmosphere maintained within the incubator. Experiments were conducted in 48-well plates and cells were seated at a density of 5×10^4 per well. After 24 hours, the BEGM medium was replaced with RPMI-1640 medium and incubated for an additional 24 hours. Liposomes were prepared as described above. Each condition for cell stimulation and antagonism was prepared in RPMI medium in a separate tube and consisted of: control (medium alone), TLR agonist, TLR agonist+lipid, and lipid alone. The cells were incubated in […] medium either with or without agonists and antagonists at 37° C. for 48 hours. Subsequently, media were collected, diluted and an enzyme-linked immunosorbent assay (ELISA) was performed to quantify IL-8 release by cells.
The ability of PX lipids to enter the endosomal compartment and modulate immune signaling was next assessed. The human bronchial epithelial cell line, BEAS2B, expresses TLR 3 in its endosomal compartments and is susceptible to infection by respiratory syncytial virus, making this cell line ideal cell line for this study. BEAS2B cells were stimulated with the TLR 3 agonist, poly I:C, in the presence or absence of phospholipid for 48 hours. After incubation, media was collected and IL-8 was quantified as a consequence of TLR 3 activation, and results are summarized in FIG. 5. […] Results from these experiments indicate that xylitol analogs were able to gain entry into BEAS2B cells and inhibit TLR 3 signaling. […] Thus, DMPX, 16:1 DPPX and 18:2 DLPX act as […]

Structure (SMILES) | antagonism of TLR 3 activation (IL-8 release) | TLR3 antagonist activity | IL-8 release from BEAS2B cells in the absence of poly I:C
CCCCCCCCCCCCCCCC(=O)OCC(COP(=O)(O)OCC(O)C(O)C(O)CO)OC(=O)CCCCCCCCCCCCCCC (centres unmarked) [DPPX, sn-1-palmitoyl, sn-2-palmitoyl sn-3 glycerol phosphoxylitol] | suppressed/inhibited activation of TLR3 | + (cutoff being greater than a 50% reduction in cytokine secretion compared to activating TLR ligand alone) | –
CCCCCCC=CCCCCCCCC(=O)OCC(COP(=O)(O)OCC(O)C(O)C(O)CO)OC(=O)CCCCCCCC=CCCCCCC (mixture of isomers) [16:1 DPPX, sn-1-palmitoleoyl, sn-2-palmitoleoyl sn-3 glycerol phosphoxylitol] | stimulated a robust release of IL-8; also recorded: ineffective antagonists of TLR 3 | – | stimulated a robust release of IL-8
CCCCCCCCCCCCCCCCCC(=O)OCC(COP(=O)(O)OCC(O)C(O)C(O)CO)OC(=O)CCCCCCCCCCCCCCCCC (centres unmarked) [DSPX, sn-1-stearoyl, sn-2-stearoyl sn-3 glycerol phosphoxylitol] | suppressed/inhibited activation of TLR3 | + (cutoff being greater than a 50% reduction in cytokine secretion compared to activating TLR ligand alone) | –
CCCCCCCCCCCCCCOC[C@H](COP(=O)(O)OCC(O)C(O)C(O)CO)OCCCCCCCCCCCCCC (mixture of isomers) [14:0 DEPX, sn-1-O-myristyl, sn-2-O-myristyl sn-3 glycerol phosphoxylitol] | suppressed/inhibited activation of TLR3 | + (cutoff being greater than a 50% reduction in cytokine secretion compared to activating TLR ligand alone) | –
CCCCCC=CCC=CCCCCCCCC(=O)OCC(COP(=O)(O)OCC(O)C(O)C(O)CO)OC(=O)CCCCCCCC=CCC=CCCCCC (mixture of isomers) [18:2 DLPX, sn-1-linoleoyl, sn-2-linoleoyl sn-3 glycerol phosphoxylitol] | ineffective antagonists of TLR 3 | – | elicited an inflammatory response
CCCCCCCCCCCCCC(=O)OC[C@H](COP(=O)(O)OCC(O)C(O)C(O)CO)OC(=O)CCCCCCCCCCCCC (mixture of isomers) [DMPX, sn-1-myristoyl, sn-2-myristoyl sn-3 glycerol phosphoxylitol] | ineffective antagonists of TLR 3 | – | elicited an inflammatory response
CCCCCCCC/C=C\CCCCCCCC(=O)O[C@H](COC(=O)CCCCCCCCCCCCCCC)COP(=O)([O-])OCC[N+](C)(C)C [POPC, 1-palmitoyl-2-oleoyl-sn-glycero-3-phosphocholine, reference compound] | unaffected | – | –
CCCCCCCC/C=C\CCCCCCCC(=O)O[C@H](COC(=O)CCCCCCCCCCCCCCC)COP(=O)(O)OCC(O)C(O)C(O)CO (some centres unmarked) [POPX, sn-1-palmitoyl, sn-2-oleoyly sn-3 glycerol phosphoxylitol] | suppressed/inhibited activation of TLR3 | + (cutoff being greater than a 50% reduction in cytokine secretion compared to activating TLR ligand alone) | –
CCCCCCCCC=CCCCCCCCC(=O)OCC(COP(=O)(O)OCC(O)C(O)C(O)CO)OC(=O)CCCCCCCC=CCCCCCCCC (mixture of isomers) [DOPX, sn-1-oleoyl, sn-2-oleoyl sn-3 glycerol phosphoxylitol] | suppressed/inhibited activation of TLR3 | + (cutoff being greater than a 50% reduction in cytokine secretion compared to activating TLR ligand alone) | –
CCCCCCCCC=CCCCCCCCCOCC(COP(=O)(O)OCC(O)C(O)C(O)CO)OCCCCCCCCC=CCCCCCCCC (mixture of isomers) [18:1 DEPX, sn-1-O-octadecenyl, sn-2-O-octadecenyl sn-3 glycerol phosphoxylitol] | suppressed/inhibited activation of TLR3 | + (cutoff being greater than a 50% reduction in cytokine secretion compared to activating TLR ligand alone) | –
CCCCCCCC/C=C\CCCCCCCC(=O)O[C@H](COC(=O)CCCCCCCCCCCCCCC)COP(=O)(O)OCC(O)CO (some centres unmarked) [POPG, palmitoyl-oleoyl-phosphatidylglycerol, reference compound] | markedly inhibited | – | –
